pIC50: −log10 of the molar value.
Assays:
[1] = target: T1, thrombin (Homo sapiens, UniProt P00734); experiment: Measurement of the thrombin inhibition in buffer; type: biochemical; details: human thrombin 0.06 nmol/l in Tris buffer pH 7.4, 22° C., substrate Boc-Asp(OBzl)-Pro-Arg-AMC; in some cases means of individual determinations
In short: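 Compound pre-incubated 15 min at 22° C with 0.06 nmol/l human thrombin in 50 mmol/l Tris, 100 mmol/l NaCl, 0.1% BSA, pH 7.4, then 5 μmol/l Boc-Asp(OBzl)-Pro-Arg-AMC added for 30 min. AMC fluorescence read at 360/460 nm against DMSO controls; IC50 from concentration–activity curves.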

[2] = target: T1, thrombin; experiment: Thrombin-inhibitory activity in plasma samples (ecarin-activated); type: biochemical; details: citrate plasma, ecarin activation, fluorogenic thrombin substrate; read at about 70% of maximum signal (about 12 min); in some cases means
In short: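 Citrate plasma prothrombin activated by ecarin (20 mU per reaction) in Ca2+-containing Hepes buffer with compound; unstimulated controls lacked ecarin. Thrombin activity followed with fluorogenic substrate (50 μmol/l final), ex 360/em 465 nm, read every minute over 20 minutes.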

SMILES: COc1cc(C(=O)N2CC(C)OCC2C2CC(O)C2)cn2nc(NCc3cccc(Cl)c3)nc12 (stereo not drawn) [Example 2, {2-[(3-Chlorobenzyl)amino]-8-methoxy[1,2,4]triazolo[1,5-a]pyridin-6-yl}[5-(3-hydroxycyclobutyl)-2-methylmorpholin-4-yl]methanone]
- pIC50 [1]: 7.72
- pIC50 [2]: 7.70

SMILES: COc1cc(C(=O)N2CC(C)(C)OC[C@H]2CCO)cn2nc(NCc3cccc(Cl)c3)nc12 [Example 7, {2-[(3-Chlorobenzyl)amino]-8-methoxy[1,2,4]triazolo[1,5-a]pyridin-6-yl}[(5R)-5-(2-hydroxyethyl)-2,2-dimethylmorpholin-4-yl]methanone]
- pIC50 [1]: 7.70
- pIC50 [2]: 7.62

SMILES: COc1cc(C(=O)N2CC(C)(C)OCC2CC(C)O)cn2nc(NCc3cccc(Cl)c3)nc12 (stereo not drawn) [Example 45, {2-[(3-Chlorobenzyl)amino]-8-methoxy[1,2,4]triazolo[1,5-a]pyridin-6-yl}[5-(2-hydroxypropyl)-2,2-dimethylmorpholin-4-yl]methanone]
- pIC50 [1]: 7.48
- pIC50 [2]: 7.47

SMILES: COc1cc(C(=O)N2CC(C)(CCO)OCC2CF)cn2nc(NCc3cccc(Cl)c3)nc12 (stereo not drawn) [Example 50, {2-[(3-Chlorobenzyl)amino]-8-methoxy[1,2,4]triazolo[1,5-a]pyridin-6-yl}[5-(fluoromethyl)-2-(2-hydroxyethyl)-2-methylmorpholin-4-yl]methanone]
- pIC50 [1]: 7.74
- pIC50 [2]: 6.91

SMILES: CCC1C(=O)N2CCC2CN1C(=O)c1cc(OC)c2nc(NCc3cccc(Cl)c3)nn2c1 (stereo not drawn) [Example 58, 4-({2-[(3-Chlorobenzyl)amino]-8-methoxy[1,2,4]triazolo[1,5-a]pyridin-6-yl}carbonyl)-3-ethyl-1,4-diazabicyclo[4.2.0]octan-2-one]
- pIC50 [1]: 7.44
- pIC50 [2]: 7.41

SMILES: COc1cc(C(=O)N2CC(C)CCC2CCO)cn2nc(NCc3cccc(Cl)c3)nc12 (stereo not drawn) [Example 64, {2-[(3-Chlorobenzyl)amino]-8-methoxy[1,2,4]triazolo[1,5-a]pyridin-6-yl}[2-(2-hydroxyethyl)-5-methylpiperidin-1-yl]methanone]
- pIC50 [1]: 7.60
- pIC50 [2]: 7.20

SMILES: COc1cc(C(=O)N2CC(C)CCC2C(N)=O)cn2nc(NCc3cccc(Cl)c3)nc12 (stereo not drawn) [Example 65, 1-({2-[(3-Chlorobenzyl)amino]-8-methoxy[1,2,4]triazolo[1,5-a]pyridin-6-yl}carbonyl)-5-methylpiperidine-2-carboxamide]
- pIC50 [1]: 8.05
- pIC50 [2]: 6.99

SMILES: CC[C@@H]1COC(C)(CCO)CN1C(=O)c1cc(OC)c2nc(NCc3cccc(Cl)c3)nn2c1 (stereo partly drawn) [Example 69, {2-[(3-Chlorobenzyl)amino]-8-methoxy[1,2,4]triazolo[1,5-a]pyridin-6-yl}[(5R)-5-ethyl-2-(2-hydroxyethyl)-2-methylmorpholin-4-yl]methanone]
- pIC50 [1]: 7.60
- pIC50 [2]: 7.41

SMILES: COCC1COC(C)(CCO)CN1C(=O)c1cc(OC)c2nc(NCc3cccc(Cl)c3)nn2c1 (stereo not drawn) [Example 71, {2-[(3-Chlorobenzyl)amino]-8-methoxy[1,2,4]triazolo[1,5-a]pyridin-6-yl}[2-(2-hydroxyethyl)-5-(methoxymethyl)-2-methylmorpholin-4-yl]methanone]
- pIC50 [1]: 7.46
- pIC50 [2]: 7.06

— patent US20160108039A1, “TRIAZOLOPYRIDINES AS THROMBIN INHIBITORS FOR THE TREATMENT OF THROMBOEMBOLIC DISEASES” (BAYER PHARMA AKTIENGESELLSCHAFT, priority 2013, published 2016)
